{
  "source": "paper doi:10.1101/2024.05.17.594698v1",
  "about": "(bioRxiv, 2024)",
  "key": {"[1]": {"test_system": "primary T cell sMAC composed of sestrin and MAPK kinases", "experiment": "Biotinylated DOS pull down from human CD4+ T cell extracts", "assay_type": "binding", "conditions": "overnight treatment, streptavidin IP, western blot, Fig 1H"}, "human CD4+ T cells": {"test_system": "human CD4+ T cells", "experiment": "Cellular toxicity by Annexin V / PI staining", "assay_type": "cell-based", "conditions": "DOS 10 µM; Fig S4J, n = 4 donors"}, "[2]": {"test_system": "telomerase in human CD4+ Tsen", "experiment": "Telomerase activity", "assay_type": "cell-based", "conditions": "Tsen 3 days after DOS treatment; Fig S4I, n = 5 donors"}, "[3]": {"test_system": "primary human CD4+ T cells", "experiment": "DOS-FITC incorporation by flow cytometry", "assay_type": "cell-based", "conditions": "T cells depleted of all three sestrins by shRNAs; Fig 1F"}, "[4]": {"experiment": "Observation of autoimmunity in pre-clinical cohorts", "assay_type": "in vivo", "conditions": "large pre-clinical cohorts (over 400 animals)"}, "[5]": {"molecular_target": "T1, GATOR/mTOR complex proteins (MIOS and WDR59) (Homo sapiens, UniProt Q6PJI9+Q9NXC5)", "T1 sequence (Q9NXC5 1-875)": "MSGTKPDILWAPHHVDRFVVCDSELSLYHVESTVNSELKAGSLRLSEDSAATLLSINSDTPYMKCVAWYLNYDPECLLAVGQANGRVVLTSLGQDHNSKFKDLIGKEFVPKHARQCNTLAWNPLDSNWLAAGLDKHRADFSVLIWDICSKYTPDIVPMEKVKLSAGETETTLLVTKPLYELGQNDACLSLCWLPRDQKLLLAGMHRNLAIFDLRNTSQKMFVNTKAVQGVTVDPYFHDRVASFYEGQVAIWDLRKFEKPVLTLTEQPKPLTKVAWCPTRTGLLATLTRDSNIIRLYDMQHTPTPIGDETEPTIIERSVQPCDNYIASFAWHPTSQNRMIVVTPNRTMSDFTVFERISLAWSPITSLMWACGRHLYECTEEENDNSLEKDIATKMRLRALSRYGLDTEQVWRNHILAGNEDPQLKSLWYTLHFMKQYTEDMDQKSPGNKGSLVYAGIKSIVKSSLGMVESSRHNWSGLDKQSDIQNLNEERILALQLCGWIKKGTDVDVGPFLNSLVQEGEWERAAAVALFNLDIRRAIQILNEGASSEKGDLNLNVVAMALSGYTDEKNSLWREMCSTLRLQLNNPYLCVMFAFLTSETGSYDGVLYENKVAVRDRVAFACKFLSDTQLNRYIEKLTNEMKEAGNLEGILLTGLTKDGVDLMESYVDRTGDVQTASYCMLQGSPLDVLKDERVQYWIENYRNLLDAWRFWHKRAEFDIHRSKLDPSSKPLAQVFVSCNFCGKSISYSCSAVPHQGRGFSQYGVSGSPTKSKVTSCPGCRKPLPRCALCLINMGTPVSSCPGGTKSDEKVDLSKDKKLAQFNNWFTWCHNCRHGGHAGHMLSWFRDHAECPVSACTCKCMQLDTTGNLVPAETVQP", "T1 sequence (Q6PJI9 1-974)": "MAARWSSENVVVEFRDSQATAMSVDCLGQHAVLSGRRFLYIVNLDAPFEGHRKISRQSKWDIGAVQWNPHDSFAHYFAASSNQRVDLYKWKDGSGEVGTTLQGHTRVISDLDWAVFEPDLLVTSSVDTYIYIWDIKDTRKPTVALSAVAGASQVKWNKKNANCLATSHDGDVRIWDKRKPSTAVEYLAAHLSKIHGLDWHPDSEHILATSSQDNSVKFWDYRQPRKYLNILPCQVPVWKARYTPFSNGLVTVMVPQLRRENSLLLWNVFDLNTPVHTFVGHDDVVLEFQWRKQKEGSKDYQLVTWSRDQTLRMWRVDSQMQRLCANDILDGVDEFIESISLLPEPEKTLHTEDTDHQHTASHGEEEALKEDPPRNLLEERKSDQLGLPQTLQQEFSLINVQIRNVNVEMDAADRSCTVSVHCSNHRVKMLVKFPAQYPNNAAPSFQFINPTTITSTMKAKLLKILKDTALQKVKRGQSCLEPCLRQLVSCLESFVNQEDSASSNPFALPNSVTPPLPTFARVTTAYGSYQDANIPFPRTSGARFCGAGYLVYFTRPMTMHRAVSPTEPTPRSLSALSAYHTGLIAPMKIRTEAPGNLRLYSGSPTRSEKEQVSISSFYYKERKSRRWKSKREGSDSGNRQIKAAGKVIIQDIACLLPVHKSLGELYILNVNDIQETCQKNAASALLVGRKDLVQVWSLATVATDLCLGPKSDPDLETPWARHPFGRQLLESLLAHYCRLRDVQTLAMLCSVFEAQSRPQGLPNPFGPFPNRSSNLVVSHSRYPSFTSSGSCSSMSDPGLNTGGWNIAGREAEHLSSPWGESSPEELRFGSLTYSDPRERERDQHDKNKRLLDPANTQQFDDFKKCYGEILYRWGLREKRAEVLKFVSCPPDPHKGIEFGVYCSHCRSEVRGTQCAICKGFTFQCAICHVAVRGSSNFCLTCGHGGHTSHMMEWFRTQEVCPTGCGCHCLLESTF", "experiment": "Biotinylated DOS pull down from human CD4+ T cell extracts", "assay_type": "binding", "conditions": "overnight treatment, streptavidin IP, western blot, Fig 1H"}, "[6]": {"molecular_target": "T2, ERK, JNK and p38 MAPK in Tsen sestrin 2 immunoprecipitates (sMACs) (Homo sapiens, UniProt P58004)", "T2 sequence (P58004 1-480)": "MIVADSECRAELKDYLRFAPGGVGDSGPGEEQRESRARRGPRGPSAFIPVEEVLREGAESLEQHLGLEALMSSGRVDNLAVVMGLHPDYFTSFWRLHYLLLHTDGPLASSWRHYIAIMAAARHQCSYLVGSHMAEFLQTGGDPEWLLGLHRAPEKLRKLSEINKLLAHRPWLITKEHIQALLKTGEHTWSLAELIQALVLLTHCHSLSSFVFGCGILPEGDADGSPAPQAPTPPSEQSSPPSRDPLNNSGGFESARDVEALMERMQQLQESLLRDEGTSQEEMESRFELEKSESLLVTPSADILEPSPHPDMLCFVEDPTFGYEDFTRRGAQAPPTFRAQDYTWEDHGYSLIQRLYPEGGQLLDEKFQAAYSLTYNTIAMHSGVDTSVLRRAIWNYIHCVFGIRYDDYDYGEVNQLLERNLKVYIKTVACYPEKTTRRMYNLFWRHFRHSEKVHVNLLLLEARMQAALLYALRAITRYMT", "experiment": "ELISA-based in vitro kinase assay on sestrin 2 immunoprecipitates", "assay_type": "biochemical", "conditions": "DOS 10 µM, 30 minutes, ATP 200 μM; Fig 1I, n = 5 donors"}, "AMPK in human CD4+ Tsen": {"test_system": "AMPK in human CD4+ Tsen", "experiment": "AMPK activity as ACC phosphorylation", "assay_type": "cell-based", "conditions": "4 hours after DOS 10 µM treatment; Fig S3I right, blot number"}, "H1N1 virus": {"test_system": "H1N1 virus", "conditions": "mouse, in vivo"}, "[7]": {"test_system": "recombinant sestrins (sestrin1-FLAG, sestrin2-FLAG)", "experiment": "In vitro pull down with biotinylated DOS, recombinant tagged proteins", "assay_type": "binding", "conditions": "DOS-biotin 10 µM, streptavidin beads, anti-flag immunoblot; Fig 1C"}, "AMPK1-His-tagged": {"molecular_target": "AMPK1-His-tagged (Homo sapiens, UniProt Q13131)", "sequence (Q13131 whole entry)": "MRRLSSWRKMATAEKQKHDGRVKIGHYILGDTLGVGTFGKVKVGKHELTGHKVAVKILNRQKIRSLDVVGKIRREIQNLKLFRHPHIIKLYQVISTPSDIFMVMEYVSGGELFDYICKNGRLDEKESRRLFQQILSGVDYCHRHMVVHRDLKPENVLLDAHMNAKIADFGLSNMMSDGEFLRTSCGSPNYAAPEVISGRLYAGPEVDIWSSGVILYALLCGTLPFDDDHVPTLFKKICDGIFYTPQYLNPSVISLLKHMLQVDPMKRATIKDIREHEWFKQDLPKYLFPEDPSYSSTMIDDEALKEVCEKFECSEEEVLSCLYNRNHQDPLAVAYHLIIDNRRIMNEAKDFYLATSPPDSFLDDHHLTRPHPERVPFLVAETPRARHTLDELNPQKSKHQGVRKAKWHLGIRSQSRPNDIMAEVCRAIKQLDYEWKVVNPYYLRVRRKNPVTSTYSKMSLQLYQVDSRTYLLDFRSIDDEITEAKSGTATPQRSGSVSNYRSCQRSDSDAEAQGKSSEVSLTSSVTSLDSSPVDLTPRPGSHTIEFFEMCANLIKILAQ", "experiment": "In vitro pull down with biotinylated DOS, recombinant tagged proteins", "assay_type": "binding", "conditions": "DOS-biotin 10 µM, streptavidin beads; Fig 1C"}},
  "note": "Where a SMILES comes first, the peptide text is derived from it.",
  "data": [
    {"smiles": "CC[C@H](C)[C@@H]1NC(=O)[C@H](Cc2ccccc2)NC(=O)[C@H](C)NC(=O)[C@H](C(C)C)NC(=O)[C@@H]2CCCN2C1=O", "note": "[DOS] (cyclo(AFIPV))", "values": [
      {"measurement": "Binding to primary T cell sMAC", "setting": "[1]", "value": "directly bound"},
      {"measurement": "Cell damage or death (Annexin-propidium iodide staining)", "setting": "human CD4+ T cells", "value": "did not cause cell damage or death"},
      {"measurement": "Telomerase activity", "setting": "[2]", "value": "not affected"},
      {"measurement": "DOS entrance in sestrin-null T cells", "setting": "[3]", "value": "did not enter"},
      {"measurement": "Spontaneous autoimmunity", "setting": "[4]", "value": "yet to see any autoimmunity case"},
      {"measurement": "Binding to GATOR/mTOR complex proteins", "setting": "[5]", "value": "not to GATOR/mTOR complex proteins"},
      {"measurement": "ERK, JNK and p38 MAPK kinase activity (autophosphorylation) in sMAC", "setting": "[6]", "value": "suppressed"},
      {"measurement": "p-ACC/ACC by immunoblotting, fold change to untreated control set as 1", "setting": "AMPK in human CD4+ Tsen", "value": 0.25},
      {"measurement": "Lung necrosis after H1N1 infection", "setting": "H1N1 virus", "value": "no sign of lung necrosis"},
      {"measurement": "Direct binding to recombinant sestrins", "setting": "[7]", "value": "direct DOS binding to sestrins"},
      {"measurement": "Direct binding to recombinant AMPK", "setting": "AMPK1-His-tagged", "value": "not AMPK"}
    ]}
  ]
}
